Assay results as given in ChEMBL document CHEMBL3992495, “Aliphatic and alicyclic camphor imines as effective inhibitors of influenza virus H1N1” (Eur J Med Chem, 2017).
Structures can show the parent of a compound that is named as a salt.

tested on: not listed separately; assay: Cytotoxicity against MDCK cells after 48 hrs by MTT assay; type: cell-based, Canis lupus familiaris; conditions: dog, read-out: CTD50

Compound | CC50 at 48 h
CCCCCCCCCCCCCCCCCC/N=C1\C[C@H]2CC[C@]1(C)C2(C)C | > 744 µM
CCCCC/N=C1\C[C@H]2CC[C@]1(C)C2(C)C | 801 µM
CCCCCCCCCCCC/N=C1\C[C@H]2CC[C@]1(C)C2(C)C | 62.1 µM
CCC/N=C1\C[C@H]2CC[C@]1(C)C2(C)C | > 2590 µM
CCCCCCCC/N=C1\C[C@H]2CC[C@]1(C)C2(C)C | 97.3 µM
CCCCCCCCCC/N=C1\C[C@H]2CC[C@]1(C)C2(C)C | 50.9 µM
CCCCCC/N=C1\C[C@H]2CC[C@]1(C)C2(C)C | 468 µM
CC1(C)[C@@H]2CC[C@@]1(C)/C(=N/C1CCCCC1)C2 | > 1290 µM
CC(N)[C@@H]1C[C@H]2CC[C@@H]1C2 (some centres undefined) | 1260 to 1270 µM
CC1(C)[C@@H]2CC[C@@]1(C)/C(=N/C1CC1)C2 | 1660 µM
CCCC/N=C1\C[C@H]2CC[C@]1(C)C2(C)C | 2420 µM
CC1(C)[C@@H]2CC[C@@]1(C)/C(=N/CCO)C2 | 2500 µM
CCCCCCC/N=C1\C[C@H]2CC[C@]1(C)C2(C)C | 234 µM
NC12CC3CC(CC(C3)C1)C2 [AMANTADINE] | 280 to 284 µM

tested on: not listed separately; assay: Antiviral activity against Influenza A virus (A/California/07/09(H1N1)) infected in MDCK cells assessed as inhibition of viral replication after 48 hrs by hemagglutination test; type: functional, Influenza A virus (A/California/07/2009(H1N1)); conditions: Influenza A virus, MDCK, 48 h; read-out: ED50 (the source's name)

Compound | EC50
CCCCCCCCCCCCCCCCCC/N=C1\C[C@H]2CC[C@]1(C)C2(C)C | 744 µM
CCCCC/N=C1\C[C@H]2CC[C@]1(C)C2(C)C | 7.7 µM
CCCCCCCCCCCC/N=C1\C[C@H]2CC[C@]1(C)C2(C)C | 15.7 µM
CCC/N=C1\C[C@H]2CC[C@]1(C)C2(C)C | 19.7 µM
CCCCCCCC/N=C1\C[C@H]2CC[C@]1(C)C2(C)C | 64.6 µM
CCCCCCCCCC/N=C1\C[C@H]2CC[C@]1(C)C2(C)C | 17.2 µM
CCCCCC/N=C1\C[C@H]2CC[C@]1(C)C2(C)C | 26 µM
CC1(C)[C@@H]2CC[C@@]1(C)/C(=N/C1CCCCC1)C2 | 55.4 µM
CC(N)[C@@H]1C[C@H]2CC[C@@H]1C2 (some centres undefined) | 206 to 209 µM
CC1(C)[C@@H]2CC[C@@]1(C)/C(=N/C1CC1)C2 | 592 µM
CCCC/N=C1\C[C@H]2CC[C@]1(C)C2(C)C | 7.7 µM
CC1(C)[C@@H]2CC[C@@]1(C)/C(=N/CCO)C2 | 5 µM
CCCCCCC/N=C1\C[C@H]2CC[C@]1(C)C2(C)C | 1.4 µM
NC12CC3CC(CC(C3)C1)C2 [AMANTADINE] | 64.2 to 70 µM
CC(N)C12CC3CC(CC(C3)C1)C2 (centres undefined) [RIMANTADINE HYDROCHLORIDE] | 67 µM

same assay, conditions: read-out: ED50 (the source's name)

Compound | EC50
CC12CCC(CC1=O)C2(C)C (centres undefined) [CAMPHOR] | 1640 µM

tested on: Influenza A virus (A/California/07/09(H1N1)); assay: Selectivity index, ratio of CTD50 for MDCK cells to ED50 for Influenza A virus (A/California/07/09(H1N1)); type: toxicity; conditions: dog, read-out: Selectivity Index

Compound | selectivity ratio
CCCCCCCCCCCCCCCCCC/N=C1\C[C@H]2CC[C@]1(C)C2(C)C | > 1
CCCCC/N=C1\C[C@H]2CC[C@]1(C)C2(C)C | 104
CCCCCCCCCCCC/N=C1\C[C@H]2CC[C@]1(C)C2(C)C | 4
CCC/N=C1\C[C@H]2CC[C@]1(C)C2(C)C | > 131
CCCCCCCC/N=C1\C[C@H]2CC[C@]1(C)C2(C)C | 2
CCCCCCCCCC/N=C1\C[C@H]2CC[C@]1(C)C2(C)C | 3
CCCCCC/N=C1\C[C@H]2CC[C@]1(C)C2(C)C | 18
CC1(C)[C@@H]2CC[C@@]1(C)/C(=N/C1CCCCC1)C2 | > 23
CC1(C)[C@@H]2CC[C@@]1(C)/C(=N/C1CC1)C2 | 3
CCCC/N=C1\C[C@H]2CC[C@]1(C)C2(C)C | 312
CC1(C)[C@@H]2CC[C@@]1(C)/C(=N/CCO)C2 | 500
CCCCCCC/N=C1\C[C@H]2CC[C@]1(C)C2(C)C | 171
NC12CC3CC(CC(C3)C1)C2 [AMANTADINE] | 4
CC12CCC(CC1=O)C2(C)C (centres undefined) [CAMPHOR] | 2
CC(N)C12CC3CC(CC(C3)C1)C2 (centres undefined) [RIMANTADINE HYDROCHLORIDE] | 5

tested on: Influenza A virus; assay: Antiviral activity against Influenza A virus (A/Puerto Rico/8/34(H1N1)) infected in MDCK cells assessed as inhibition of viral replication after 48 hrs by hemagglutination test; type: functional; conditions: A/Puerto Rico/8/1934(H1N1), read-out: ED50 (the source's name)

Compound | EC50
CCCCCCCCCCCCCCCCCC/N=C1\C[C@H]2CC[C@]1(C)C2(C)C | > 744 µM
CCCCC/N=C1\C[C@H]2CC[C@]1(C)C2(C)C | 12.2 µM
CCCCCCCCCCCC/N=C1\C[C@H]2CC[C@]1(C)C2(C)C | > 37.6 µM
CCC/N=C1\C[C@H]2CC[C@]1(C)C2(C)C | 4.1 µM
CCCCCCCC/N=C1\C[C@H]2CC[C@]1(C)C2(C)C | 9.9 µM
CCCCCCCCCC/N=C1\C[C@H]2CC[C@]1(C)C2(C)C | 10.3 µM
CCCCCC/N=C1\C[C@H]2CC[C@]1(C)C2(C)C | 29.8 µM
CC1(C)[C@@H]2CC[C@@]1(C)/C(=N/C1CCCCC1)C2 | 15.5 µM
CC(N)[C@@H]1C[C@H]2CC[C@@H]1C2 (some centres undefined) | 230 µM
CC1(C)[C@@H]2CC[C@@]1(C)/C(=N/C1CC1)C2 | 738 µM
CCCC/N=C1\C[C@H]2CC[C@]1(C)C2(C)C | 5.8 µM
CCCCCCC/N=C1\C[C@H]2CC[C@]1(C)C2(C)C | 4.8 µM
NC12CC3CC(CC(C3)C1)C2 [AMANTADINE] | 72.8 µM
CC12CCC(CC1=O)C2(C)C (centres undefined) [CAMPHOR] | 1450 µM
CC(N)C12CC3CC(CC(C3)C1)C2 (centres undefined) [RIMANTADINE HYDROCHLORIDE] | 83.8 µM

tested on: Influenza A virus (A/Puerto Rico/8/34(H1N1)); assay: Selectivity index, ratio of CTD50 for MDCK cells to ED50 for Influenza A virus (A/Puerto Rico/8/34(H1N1)); type: toxicity; conditions: dog, read-out: Selectivity Index

Compound | selectivity ratio
CCCCCCCCCCCCCCCCCC/N=C1\C[C@H]2CC[C@]1(C)C2(C)C | < 1
CCCCC/N=C1\C[C@H]2CC[C@]1(C)C2(C)C | 66
CCCCCCCCCCCC/N=C1\C[C@H]2CC[C@]1(C)C2(C)C | < 2
CCC/N=C1\C[C@H]2CC[C@]1(C)C2(C)C | > 632
CCCCCCCC/N=C1\C[C@H]2CC[C@]1(C)C2(C)C | 10
CCCCCCCCCC/N=C1\C[C@H]2CC[C@]1(C)C2(C)C | 5
CCCCCC/N=C1\C[C@H]2CC[C@]1(C)C2(C)C | 16
CC1(C)[C@@H]2CC[C@@]1(C)/C(=N/C1CCCCC1)C2 | > 83
CC1(C)[C@@H]2CC[C@@]1(C)/C(=N/C1CC1)C2 | 2
CCCC/N=C1\C[C@H]2CC[C@]1(C)C2(C)C | 417
CCCCCCC/N=C1\C[C@H]2CC[C@]1(C)C2(C)C | 49
NC12CC3CC(CC(C3)C1)C2 [AMANTADINE] | 4
CC12CCC(CC1=O)C2(C)C (centres undefined) [CAMPHOR] | 2
CC(N)C12CC3CC(CC(C3)C1)C2 (centres undefined) [RIMANTADINE HYDROCHLORIDE] | 4
